Data as given in patent US5006548A, “Acrylamidobenzoic acid derivatives and their use” (Sawai Pharmaceutical Co., Ltd., priority 1984, dated 1991).
pIC50: −log10 of the molar value.

Legend:
hyaluronidase = target: T1, hyaluronidase (Bos taurus, UniProt Q2YDK3); assay: Antihyaluronidase activity (modified Morgan-Elson method, activated by Compound 48/80 or CaCl2); format: biochemical; details: hyaluronidase 340 NF unit/ml, 37° C.
T1 sequence (Q2YDK3 36-553): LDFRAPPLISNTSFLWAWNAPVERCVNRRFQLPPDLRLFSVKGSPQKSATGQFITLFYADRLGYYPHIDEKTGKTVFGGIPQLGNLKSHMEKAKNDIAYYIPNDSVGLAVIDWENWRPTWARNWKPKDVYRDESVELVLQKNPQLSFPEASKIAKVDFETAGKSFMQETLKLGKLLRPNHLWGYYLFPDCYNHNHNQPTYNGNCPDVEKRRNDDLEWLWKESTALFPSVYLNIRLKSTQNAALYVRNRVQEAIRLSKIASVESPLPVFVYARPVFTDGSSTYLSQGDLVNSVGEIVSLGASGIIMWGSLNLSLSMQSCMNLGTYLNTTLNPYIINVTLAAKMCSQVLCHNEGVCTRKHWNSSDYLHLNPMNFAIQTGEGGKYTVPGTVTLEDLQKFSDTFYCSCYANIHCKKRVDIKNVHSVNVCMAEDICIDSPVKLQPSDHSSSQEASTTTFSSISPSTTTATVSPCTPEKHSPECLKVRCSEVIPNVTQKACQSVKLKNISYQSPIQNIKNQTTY
From the text: In view of the fact that antiallergic agents such as sodium cromoglicate (DSCG), tranilast, etc. inhibit the hyaluronidase activity and that compounds which release histamine from the mast cells such as the […] and polymixin B activate the hyaluronidase, it is considered that the hyaluronidase inhibiting activity can be taken as an index for the antiallergic action. [ct. The 5th Medicinal Chemistry Symposium (Dec. 9 and 10, 1983; Kyoto) Synopsis of Lectures, page 68]. On the basis of such knowledge, the compounds according to the invention were tested for anti-hyaluronidase activity and found to have the excellent activities.
A buffer solution of hyaluronidase (0.1 ml) was taken in a test tube and buffer solutions of various compounds in various concentrations (0.2 ml each) were added. The mixture was incubated at 37° C. for 20 minutes. Then, a buffer solution of activating agent (Compound 48/80 or CaCl2) (0.2 ml) was added up to the total volume of 0.5 ml, and the mixture was incubated at 37° C. for 20 minutes. To this solution, potassium hyaluronate buffer solution (0.5 ml) was added and the mixture was incubated at 37° C. for 40 minutes. After cooling, the solution was neutralized with 0.4N aqueous solution of sodium hydroxide (0.2 ml) to stop the reaction. On the resulting solution, OD585 was determined by modified Morgan-Elson method. A buffer solution or water (0.2 ml) was used as a control in place of the solution of the compounds in the same operation including OD585 measurement. (Final concentration of hyaluronidase was 340 NF unit/ml.)

SRS-A = assay: Anti-SRS-A action: ileum contraction induced by crude SRS-A solution; design: species or system guinea pig
Protocol: A piece of lung of guinea pig sensitized with ovalbumin was incubated with antigen ovalbumin at 37° C. for 20 minutes and supernatant was separated in order to use as a crude SRS-A solution.
A piece of ileum of a normal guinea pig was suspended in Tyrode's solution in a Magnus tube and incubated with a solution of the compound to be tested for a predetermined duration. The contraction of the piece of ileum induced by adding the above crude SRS-A solution was compared with that attributed to 10^-6 M histamine dihydrochloride (which was taken as 100). The anti-SRS-A action was shown in terms of the rate of inhibition to the contraction.

[1] = tested on: ileum of guinea pig active-sensitized with ovalbumin; assay: Anti-Schultz-Dale action: ovalbumin-induced contraction of sensitized ileum; details: 10^-3 M
Protocol: A piece of ileum of guinea pig active-sensitized with ovalbumin with Freund complete adjuvant was suspended in Tyrode's solution in a Magnus tube and incubated with a solution of the compound to be tested for a predetermined duration. The contraction of the piece of ileum induced by applying the ovalubumin was compared with that attributed to 10^-6 M histamine dihydrochloride. The anti-Schultz-Dale action was shown in terms of the rate of inhibition to the contraction.

peritoneal mast cell = assay: Inhibition of histamine release from mast cell in abdominal cavity of rats by antigen-antibody reaction; format: cell-based, rat; details: for effect on natural release of histamine (in words) / activity at 1000 µM: 10^-3 M; for activity at 1000 µM / activity at 100 µM / activity at 10 µM / activity at 1 µM: Rattus norvegicus, Mast cell, 20 min, DNP-Ascaris 20 microgramms/ml, read-out: Amount of histamine released from peritoneal mast cell (Control=100); for activity at 100 µM: 10^-4 M; for activity at 10 µM: 10^-5 M; for activity at 1 µM: 10^-6 M; for inhibitory activity compared with tranilast (in words): range of 10^-6 M to 10^-3 M
Protocol: Examination was made on the activity of inhibition of histamine release from mast cell by antigen-antibody reaction.
Swine ascaris extract solution was dinitrophenylated according to Aisen's method, dialysed, and lyophilized. The product was administered as antigen together with Bordetella Pertussis vaccine subcutaneously into the foot pad of rat. Eight days later, blood was taken in order to obtain antiserum. The PCA titer for this antiserum in rat was 32 to 64.
Heparin-containing PBS was injected intraperitoneally to rat which was sacrificed by exsanguination, after which the abdomen was well massaged. Then the injected PBS was collected and purified by washing several times by centrifugation. The number of the mast cells contained in the solution was determined and adjusted to the designed concentration. As to method of sensitizing the cell, the above cell suspension (6 ml, 2×10^6 cells/ml) was treated with anti-DNP-Ascaris rat serum (PCA titer 32) (6 ml) and the mixture was incubated in the presence of heparin at 37° C. for 2 hours.
To the sensitized mast cell suspension, the solution of the compound to be tested was added, and the mixture was preliminarily incubated at 37° C. for 12 minutes. After addition of the solution of antigen DNP-Ascaris (final concentration: 20 microgramms/ml), the mixture was further incubated for 20 minutes. After completion of the reaction, the solution was centrifuged (500 G, 10 min.) at a low temperature to obtain a supernatant solution. Histamine contained in the supernatant solution was determined by fluorometry using orthophthalaldehyde method.

[2] = tested on: passive cutaneous anaphylaxis; assay: Anti-passive cutaneous anaphylaxis (PCA) activity in rats; format: in vivo, Wistar strain rats; details: for Average Inhibition Rate (%), Antiserum Dilution: × 16 / Average Inhibition Rate (%), Antiserum Dilution: × 32: 100 mg/kg PO, rats; for anti-PCA activity (in words): rat, in vivo
Protocol: Wistar strain rats were sensitized with ovalbumin using aluminium hydroxide gel and Bordetella Pertussis vaccine as adjuvants. Dilutions of antiserum (16-fold and 32-fold) obtained by collecting blood samples 14 days later were administered subcutaneously in the dorsal skin of the rats of the same strain at the rate of 0.1 ml per spot, and the rats were grown for 48 hours. One hour after peroral administration of the sample solution, a mixture of antigen ovalbumin and Evans-blue dye was administered to the tail venous of the animal according to the ordinary procedure. Thirty minutes later, the animals were sacrificed by exsanguination, and the areas of blue spots (long diameter×short diameter) eliciting on the portion of the antiserum injection at the dorsal skin were measured to obtain the rate of inhibition based on the average value shown by the control animals.

Acute toxicity = details: mouse, in vivo, mice, one week
Protocol: As test animals, ddy-strain mice (male) were used. According to the conventional procedure, suspension or solution of test compound was administered to the animals. From the number of the dead animals up to one week after the administration, LD50 values were obtained by Provit method.

Compound | pIC50 (hyaluronidase) | anti-SRS-A action (in words) (SRS-A) | inhibition of SRS-A induced contraction (SRS-A; 10^-3 M) | inhibition of SRS-A induced contraction (SRS-A; 10^-4 M) | anti-Schultz-Dale action (in words) [1] | inhibition of contraction (anti-Schultz-Dale) [1] | inhibition of histamine release from mast cell (in words) (peritoneal mast cell) | effect on natural release of histamine (in words) (peritoneal mast cell) | activity at 1000 µM (peritoneal mast cell) | activity at 100 µM (peritoneal mast cell) | activity at 10 µM (peritoneal mast cell) | activity at 1 µM (peritoneal mast cell) | inhibitory activity compared with tranilast (in words) (peritoneal mast cell) | Average Inhibition Rate (%), Antiserum Dilution: × 16 [2] | Average Inhibition Rate (%), Antiserum Dilution: × 32 [2] | LD50 at 168 h (Acute toxicity; Intravenous) | LD50 at 168 h (Acute toxicity; PO) | anti-PCA activity (in words) [2]
O=C(C=Cc1ccsc1)Nc1ccccc1C(=O)O [Compound 1, 2-[3-(3-thienyl)acrylamido]benzoic acid] | 4.07 | mild anti-SRS-A action | 23.9% | 14.8% | strong anti-Schultz-Dale action | 83.5% | action of inhibiting release of histamine from the mast cell even at the low concentration of 10^-6 M | inhibited natural release of histamine | -88% | 11% | 36% | 31% | stronger inhibitory activity than the control tranilast | 31.6% | 41.8% | 438 mg/kg | 615 mg/kg | 
O=C(C=Cc1cccs1)Nc1ccccc1C(=O)O [Compound 2, 2-[3-(2-thienyl)acrylamido]benzoic acid] | 3.85 | mild anti-SRS-A action | 11.0% |  | strong anti-Schultz-Dale action | 100% | action of inhibiting release of histamine from the mast cell even at the low concentration of 10^-6 M | inhibited natural release of histamine | -130% | -70% | 24% | 11% | stronger inhibitory activity than the control tranilast | 26.7% | 21.2% | 277 mg/kg | 400 mg/kg | showed the anti-PCA activity
O=C(C=Cc1ccco1)Nc1ccccc1C(=O)O [Compound 3, 2-[3-(2-furyl)acrylamido]benzoic acid] | 3.80 |  |  |  |  |  | strong inhibition from 10^-4 M |  | 0% | 36% | 85% | 95% | stronger inhibitory activity than the control tranilast |  |  |  |  | showed the anti-PCA activity
O=C(C=Cc1ccco1)Nc1cc(Cl)ccc1C(=O)O [Compound 4] | 3.59 |  |  |  |  |  |  |  |  |  |  |  |  |  |  |  |  | 
COc1ccc(/C=C/C(=O)Nc2ccccc2C(=O)O)cc1OC [Tranilast, reference compound] |  | no action |  |  | no action |  |  |  | 29% | 67% | 95% | 95% |  |  |  |  |  | 

The next lines start with results.

pIC50 (hyaluronidase) | Compound | anti-SRS-A action (in words) (SRS-A) | inhibition of SRS-A induced contraction (SRS-A; 10^-3 M) | inhibition of SRS-A induced contraction (SRS-A; 10^-4 M) | anti-Schultz-Dale action (in words) [1] | inhibition of contraction (anti-Schultz-Dale) [1] | inhibition of histamine release from mast cell (in words) (peritoneal mast cell) | effect on natural release of histamine (in words) (peritoneal mast cell) | activity at 1000 µM (peritoneal mast cell) | activity at 100 µM (peritoneal mast cell) | activity at 10 µM (peritoneal mast cell) | activity at 1 µM (peritoneal mast cell) | inhibitory activity compared with tranilast (in words) (peritoneal mast cell) | Average Inhibition Rate (%), Antiserum Dilution: × 16 [2] | Average Inhibition Rate (%), Antiserum Dilution: × 32 [2] | LD50 at 168 h (Acute toxicity; Intravenous) | LD50 at 168 h (Acute toxicity; PO) | anti-PCA activity (in words) [2]
3.52 | O=C(C=Cc1ccco1)Nc1cc([N+](=O)[O-])ccc1C(=O)O [Compound 5] |  |  |  |  |  |  |  |  |  |  |  |  |  |  |  |  | 
3.92 | Cn1cccc1C=CC(=O)Nc1ccccc1C(=O)O [Compound 6] |  |  |  |  |  |  |  |  |  |  |  |  |  |  |  |  | 
